From PubChem BioAssay (NCI)
Where “and” joins values, the source holds several entries; their conditions need not be identical. Equal entries are not always repeated.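 Protocol summary: plate cells (96-well), add compound at 5 concentrations, incubate 48 h, interpolate endpoints linearly. GI50 marks 50% less growth. At the TGI there is no net growth.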

Key:
Assay in all cases: inhibition of tumour cell growth, NCI panel, 48 h
[1] = system: A498 renal
[2] = system: MOLT-4 leukemia
[3] = system: RPMI-8226 leukemia
[4] = system: IGROV1 ovarian
[5] = system: HT29 colon
[6] = system: M14 melanoma
[7] = system: OVCAR-8 ovarian
[8] = system: HOP-62 NSCLC
[9] = system: SK-MEL-5 melanoma
[10] = system: NCI/ADR-RES ovarian

| Structure (SMILES) | TGI [1] [µM] | TGI [2] [µM] | TGI [3] [µM] | TGI [4] [µM] | TGI [5] [µM] | TGI [6] [µM] | TGI [7] [µM] | TGI [8] [µM] | TGI [9] [µM] | TGI [10] [µM] | GI50 [1] | GI50 [2] | GI50 [3] | GI50 [4] | GI50 [5] | GI50 [6] [µM] | GI50 [7] | GI50 [8] | GI50 [9] | GI50 [10] |
| --- | --- | --- | --- | --- | --- | --- | --- | --- | --- | --- | --- | --- | --- | --- | --- | --- | --- | --- | --- | --- |
| O=c1c(Cl)c(Cl)c(=O)c2sc3cc(Cl)ccc3[nH]c1=2 | > 100 | 14.5 | 17.2 | > 100 | > 100 | > 100 | 35 | > 100 | > 100 | 20.1 | – | – | – | – | – | – | – | – | – | – |
| COc1cc(-c2nc(-c3nc4ccccc4[nH]3)cc3c2[nH]c2ccccc23)cc(OC)c1OC | > 100 | > 100 | 8.61 | > 100 | > 100 | > 100 | > 100 | > 100 | > 100 | > 100 | 2.43 µM | 3.93 µM | 2.15 µM | 2.94 µM | 6.87 µM | 4.18 | 2.79 µM | 5.87 µM | 2.99 µM | 3.59 µM |
| CN(Cc1cc(Cl)cc(Cl)c1)CC(C(=O)c1ccccc1)c1ccccc1 (centres undefined) | 64.8 | – | > 100 | > 58.3 | 7.91 | 13.5 | 21.2 | 71.3 | 29.9 | 5.45 | – | – | – | – | – | – | – | – | – | – |
| COC(=O)c1cc(O)c2c(c1C(=O)OC)C[C@H]1[C@@H]3CC=C4C[C@@H](O)CC[C@]4(C)[C@H]3CC[C@]21C | 20.1 | 5.56 | 4.96 | 15.9 | 7 | 18.7 | 16.9 | 6.27 | – | 24.4 | 3.7 µM | 2.22 µM | 1.57 µM | 3.89 µM | 2.74 µM | 3.47 | 3.33 µM | 2.24 µM | – | 3.61 µM |
| COc1cc(CNc2ccccc2C(=O)N2CCN(C(=O)c3cc(-c4cc(OC)c(OC)c(OC)c4)n4nc(-c5ccccc5)cc4n3)CC2)cc(OC)c1OC | 20.8 | > 100 | – | > 100 | 12 | > 100 | > 100 | > 100 | 3.91 | 5.76 | 2.15 µM | 3.32 µM | – | 7.73 µM | 3.5 µM | 4.05 | 4.35 µM | 6.04 µM | 1.58 µM | 1.95 µM |
| Nc1ccn(C2OC(COC(=O)C34CC5CC(CC(C5)C3)C4)C(O)C2O)c(=O)n1 (centres undefined) | > 100 | > 100 | > 100 | > 100 | > 100 | > 100 | > 100 | – | > 100 | > 100 | – | – | – | – | – | – | – | – | – | – |
| OCC(O)c1nc2ccc3[nH]ncc3c2c2c1CCCC2 (centres undefined) | 1.75 | > 50 | – | > 50 | > 50 | 2.78 | > 50 | > 50 | 2.99 | 4.51 | 0.876 µM | 1.56 µM | – | 1.38 µM | 1.27 µM | 1.17 | 1.45 µM | 1.53 µM | 1.02 µM | 1.34 µM |
| CCC(CNc1cc(OC)cc2cccnc12)NC1CCCCC1 (centres undefined) | > 100 | > 100 | – | 44.9 | – | 33.5 | > 100 | > 100 | 30.6 | > 100 | 29.7 µM | 36 µM | – | 10.6 µM | – | 17.1 | 51.1 µM | 66 µM | 15.8 µM | 35.3 µM |
| CO[C@H](C(=O)[C@@H](O)[C@@H](C)O)[C@@H]1Cc2cc3cc(OC4CC(OC5CC(O)C(O)C(C)O5)C(O)C(C)O4)c(C)c(O)c3c(O)c2C(=O)[C@H]1OC1CC(OC2CC(OC3CC(C)(O)C(O)C(C)O3)C(O)C(C)O2)C(O)C(C)O1 (some centres undefined) | – | – | – | – | – | – | – | – | – | – | 0.0084 µg/mL and 0.0164 µg/mL | 0.0223 µg/mL | 0.0265 µg/mL and 0.0214 µg/mL | 0.0472 µg/mL and 0.0289 µg/mL | 0.029 µg/mL and 0.0205 µg/mL | – | 0.0281 µg/mL and 0.0194 µg/mL | 0.0237 µg/mL and 0.02 µg/mL | 0.0199 µg/mL | 23 µg/mL and 0.633 µg/mL |
| CCN(CC)CCCNC(=O)c1c2c(n3ccccc13)C(=O)c1ncccc1C2=O | 3.27 | > 100 | > 100 | – | 1.54 | 2.25 | 2.07 | 2.78 | 1.24 | 23.4 | 1.66 µM | 0.604 µM | 3.21 µM | – | 0.248 µM | 0.764 | 0.486 µM | 0.586 µM | 0.275 µM | 3.02 µM |
| Cc1ccc(S(=O)(=O)NNC(=O)c2cc(C)c(C)cc2N)cc1 | > 100 | > 100 | > 100 | > 100 | > 100 | – | > 100 | > 100 | > 100 | > 100 | – | – | – | – | – | – | – | – | – | – |
